Reference: the supplement of paper PMC10307832

Assays:
Test in all cases: relative viability (nuclei count vs DMSO), 5 days (fraction); higher = more cells survive
Afatinib = compound: CN(C)C/C=C/C(=O)Nc1cc2c(Nc3ccc(F)c(Cl)c3)ncnc2cc1O[C@H]1CCOC1 [Afatinib]
How it was run: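 Viability here means nuclei in treated wells divided by nuclei in vehicle wells, reported as the median across plates. Only plates with control CV below 25% and at least one doubling passed. Lung cancer cell lines in 1536-well plates were exposed to five √10-spaced library-drug doses for 5 days and counted from 4× Hoechst images in MetaXpress.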

Afatinib + Vorinostat = compound: CN(C)C/C=C/C(=O)Nc1cc2c(Nc3ccc(F)c(Cl)c3)ncnc2cc1O[C@H]1CCOC1 [Afatinib] + O=C(CCCCCCC(=O)Nc1ccccc1)NO [Vorinostat] (partner 1 µM)
How it was run: (§1)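 Relative viability was taken as the ratio of nuclei in treated wells to nuclei in vehicle wells. Lung cancer cell lines in 1536-well plates received compounds by pin tool one day after seeding, either one drug alone or a fixed anchor-drug dose plus five library-drug doses (not always all listed) in √10 steps. Nuclei were counted on 4× images after 5 days of treatment, and values are medians of duplicate plates.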

Afatinib + Palbociclib = compound: CN(C)C/C=C/C(=O)Nc1cc2c(Nc3ccc(F)c(Cl)c3)ncnc2cc1O[C@H]1CCOC1 [Afatinib] + CC(=O)c1c(C)c2cnc(Nc3ccc(N4CCNCC4)cn3)nc2n(C2CCCC2)c1=O [Palbociclib] (partner 0.5 µM)
How it was run: as §1

Afatinib + Trametinib = compound: CN(C)C/C=C/C(=O)Nc1cc2c(Nc3ccc(F)c(Cl)c3)ncnc2cc1O[C@H]1CCOC1 [Afatinib] + CC(=O)Nc1cccc(-n2c(=O)n(C3CC3)c(=O)c3c(Nc4ccc(I)cc4F)n(C)c(=O)c(C)c32)c1 [Trametinib] (partner 0.02 µM)
How it was run: as §1

Afatinib + Tozasertib = compound: CN(C)C/C=C/C(=O)Nc1cc2c(Nc3ccc(F)c(Cl)c3)ncnc2cc1O[C@H]1CCOC1 [Afatinib] + Cc1cc(Nc2cc(N3CCN(C)CC3)nc(Sc3ccc(NC(=O)C4CC4)cc3)n2)n[nH]1 [Tozasertib] (partner 0.1 µM)
How it was run: as §1

Afatinib + AZD7762 = compound: CN(C)C/C=C/C(=O)Nc1cc2c(Nc3ccc(F)c(Cl)c3)ncnc2cc1O[C@H]1CCOC1 [Afatinib] + NC(=O)Nc1cc(-c2cccc(F)c2)sc1C(=O)N[C@H]1CCCNC1 [AZD7762] (partner 0.2 µM)
How it was run: as §1

Afatinib + Luminespib = compound: CN(C)C/C=C/C(=O)Nc1cc2c(Nc3ccc(F)c(Cl)c3)ncnc2cc1O[C@H]1CCOC1 [Afatinib] + CCNC(=O)c1noc(-c2cc(C(C)C)c(O)cc2O)c1-c1ccc(CN2CCOCC2)cc1 [Luminespib] (partner 0.01 µM)
How it was run: as §1

Afatinib + OSI-027 = compound: CN(C)C/C=C/C(=O)Nc1cc2c(Nc3ccc(F)c(Cl)c3)ncnc2cc1O[C@H]1CCOC1 [Afatinib] + COc1cccc2cc(-c3nc([C@H]4CC[C@H](C(=O)O)CC4)n4ncnc(N)c34)[nH]c12 [OSI-027] (partner 0.5 µM)
How it was run: as §1

Afatinib + Olaparib = compound: CN(C)C/C=C/C(=O)Nc1cc2c(Nc3ccc(F)c(Cl)c3)ncnc2cc1O[C@H]1CCOC1 [Afatinib] + O=C(c1cc(Cc2n[nH]c(=O)c3ccccc23)ccc1F)N1CCN(C(=O)C2CC2)CC1 [Olaparib] (partner 8 µM)
How it was run: as §1

Afatinib + Pemetrexed = compound: CN(C)C/C=C/C(=O)Nc1cc2c(Nc3ccc(F)c(Cl)c3)ncnc2cc1O[C@H]1CCOC1 [Afatinib] + Nc1nc2[nH]cc(CCc3ccc(C(=O)N[C@@H](CCC(=O)O)C(=O)O)cc3)c2c(=O)[nH]1 [Pemetrexed] (partner 0.2 µM)
How it was run: as §1

Afatinib + Foretinib = compound: CN(C)C/C=C/C(=O)Nc1cc2c(Nc3ccc(F)c(Cl)c3)ncnc2cc1O[C@H]1CCOC1 [Afatinib] + COc1cc2c(Oc3ccc(NC(=O)C4(C(=O)Nc5ccc(F)cc5)CC4)cc3F)ccnc2cc1OCCCN1CCOCC1 [Foretinib] (partner 0.25 µM)
How it was run: as §1

Afatinib + Phenformin = compound: CN(C)C/C=C/C(=O)Nc1cc2c(Nc3ccc(F)c(Cl)c3)ncnc2cc1O[C@H]1CCOC1 [Afatinib] + N=C(N)NC(=N)NCCc1ccccc1 [Phenformin] (partner 250 µM)
How it was run: as §1

Afatinib + Decitabine = compound: CN(C)C/C=C/C(=O)Nc1cc2c(Nc3ccc(F)c(Cl)c3)ncnc2cc1O[C@H]1CCOC1 [Afatinib] + Nc1ncn([C@H]2C[C@H](O)[C@@H](CO)O2)c(=O)n1 [Decitabine] (partner 2 µM)
How it was run: as §1

Afatinib + Dasatinib = compound: CN(C)C/C=C/C(=O)Nc1cc2c(Nc3ccc(F)c(Cl)c3)ncnc2cc1O[C@H]1CCOC1 [Afatinib] + Cc1nc(Nc2ncc(C(=O)Nc3c(C)cccc3Cl)s2)cc(N2CCN(CCO)CC2)n1 [Dasatinib] (partner 0.075 µM)
How it was run: as §1

Cell Line: NCI-H2342
- relative viability (Afatinib; 0.005 µM): 0.896
- relative viability (Afatinib; 0.01581 µM): 0.936
- relative viability (Afatinib; 0.05 µM): 0.889
- relative viability (Afatinib; 0.1581 µM): 0.826
- relative viability (Afatinib; 0.5 µM): 0.726
- relative viability (Afatinib + Vorinostat; first compound 0.005 µM): 0.706
- relative viability (Afatinib + Vorinostat; first compound 0.01581 µM): 0.628
- relative viability (Afatinib + Vorinostat; first compound 0.05 µM): 0.729
- relative viability (Afatinib + Vorinostat; first compound 0.1581 µM): 0.695
- relative viability (Afatinib + Vorinostat; first compound 0.5 µM): 0.696
- relative viability (Afatinib + Palbociclib; first compound 0.005 µM): 0.528
- relative viability (Afatinib + Palbociclib; first compound 0.01581 µM): 0.497
- relative viability (Afatinib + Palbociclib; first compound 0.05 µM): 0.473
- relative viability (Afatinib + Palbociclib; first compound 0.1581 µM): 0.424
- relative viability (Afatinib + Palbociclib; first compound 0.5 µM): 0.475
- relative viability (Afatinib + Trametinib; first compound 0.005 µM): 0.761
- relative viability (Afatinib + Trametinib; first compound 0.01581 µM): 0.723
- relative viability (Afatinib + Trametinib; first compound 0.05 µM): 0.726
- relative viability (Afatinib + Trametinib; first compound 0.1581 µM): 0.74
- relative viability (Afatinib + Trametinib; first compound 0.5 µM): 0.672
- relative viability (Afatinib + Tozasertib; first compound 0.005 µM): 0.464
- relative viability (Afatinib + Tozasertib; first compound 0.01581 µM): 0.545
- relative viability (Afatinib + Tozasertib; first compound 0.05 µM): 0.472
- relative viability (Afatinib + Tozasertib; first compound 0.1581 µM): 0.421
- relative viability (Afatinib + Tozasertib; first compound 0.5 µM): 0.393
- relative viability (Afatinib + AZD7762; first compound 0.005 µM): 0.562
- relative viability (Afatinib + AZD7762; first compound 0.01581 µM): 0.488
- relative viability (Afatinib + AZD7762; first compound 0.05 µM): 0.477
- relative viability (Afatinib + AZD7762; first compound 0.1581 µM): 0.434
- relative viability (Afatinib + AZD7762; first compound 0.5 µM): 0.474
- relative viability (Afatinib + Luminespib; first compound 0.005 µM): 0.713
- relative viability (Afatinib + Luminespib; first compound 0.01581 µM): 0.648
- relative viability (Afatinib + Luminespib; first compound 0.05 µM): 0.699
- relative viability (Afatinib + Luminespib; first compound 0.1581 µM): 0.627
- relative viability (Afatinib + Luminespib; first compound 0.5 µM): 0.583
- relative viability (Afatinib + OSI-027; first compound 0.005 µM): 0.669
- relative viability (Afatinib + OSI-027; first compound 0.01581 µM): 0.539
- relative viability (Afatinib + OSI-027; first compound 0.05 µM): 0.546
- relative viability (Afatinib + OSI-027; first compound 0.1581 µM): 0.558
- relative viability (Afatinib + OSI-027; first compound 0.5 µM): 0.485
- relative viability (Afatinib + Olaparib; first compound 0.005 µM): 0.375
- relative viability (Afatinib + Olaparib; first compound 0.01581 µM): 0.457
- relative viability (Afatinib + Olaparib; first compound 0.05 µM): 0.411
- relative viability (Afatinib + Olaparib; first compound 0.1581 µM): 0.347
- relative viability (Afatinib + Olaparib; first compound 0.5 µM): 0.406
- relative viability (Afatinib + Pemetrexed; first compound 0.005 µM): 0.763
- relative viability (Afatinib + Pemetrexed; first compound 0.01581 µM): 0.762
- relative viability (Afatinib + Pemetrexed; first compound 0.05 µM): 0.706
- relative viability (Afatinib + Pemetrexed; first compound 0.1581 µM): 0.777
- relative viability (Afatinib + Pemetrexed; first compound 0.5 µM): 0.747
- relative viability (Afatinib + Foretinib; first compound 0.005 µM): 0.892
- relative viability (Afatinib + Foretinib; first compound 0.01581 µM): 0.895
- relative viability (Afatinib + Foretinib; first compound 0.05 µM): 0.856
- relative viability (Afatinib + Foretinib; first compound 0.1581 µM): 0.743
- relative viability (Afatinib + Foretinib; first compound 0.5 µM): 0.774
- relative viability (Afatinib + Phenformin; first compound 0.005 µM): 0.641
- relative viability (Afatinib + Phenformin; first compound 0.01581 µM): 0.488
- relative viability (Afatinib + Phenformin; first compound 0.05 µM): 0.575
- relative viability (Afatinib + Phenformin; first compound 0.1581 µM): 0.519
- relative viability (Afatinib + Phenformin; first compound 0.5 µM): 0.477
- relative viability (Afatinib + Decitabine; first compound 0.005 µM): 0.706
- relative viability (Afatinib + Decitabine; first compound 0.01581 µM): 0.698
- relative viability (Afatinib + Decitabine; first compound 0.05 µM): 0.718
- relative viability (Afatinib + Decitabine; first compound 0.1581 µM): 0.569
- relative viability (Afatinib + Decitabine; first compound 0.5 µM): 0.573
- relative viability (Afatinib + Dasatinib; first compound 0.005 µM): 0.315
- relative viability (Afatinib + Dasatinib; first compound 0.01581 µM): 0.281
- relative viability (Afatinib + Dasatinib; first compound 0.05 µM): 0.295
- relative viability (Afatinib + Dasatinib; first compound 0.1581 µM): 0.305
- relative viability (Afatinib + Dasatinib; first compound 0.5 µM): 0.297

Cell Line: NCI-H1623
- relative viability (Afatinib; 0.005 µM): 0.822
- relative viability (Afatinib; 0.01581 µM): 0.813
- relative viability (Afatinib; 0.05 µM): 0.42
- relative viability (Afatinib; 0.1581 µM): 0.221
- relative viability (Afatinib; 0.5 µM): 0.267
- relative viability (Afatinib + Tozasertib; first compound 0.005 µM): 0.397
- relative viability (Afatinib + Tozasertib; first compound 0.01581 µM): 0.346
- relative viability (Afatinib + Tozasertib; first compound 0.05 µM): 0.285
- relative viability (Afatinib + Tozasertib; first compound 0.1581 µM): 0.121
- relative viability (Afatinib + Tozasertib; first compound 0.5 µM): 0.148
- relative viability (Afatinib + Luminespib; first compound 0.005 µM): 0.489
- relative viability (Afatinib + Luminespib; first compound 0.01581 µM): 0.454
- relative viability (Afatinib + Luminespib; first compound 0.05 µM): 0.325
- relative viability (Afatinib + Luminespib; first compound 0.1581 µM): 0.214
- relative viability (Afatinib + Luminespib; first compound 0.5 µM): 0.281
- relative viability (Afatinib + OSI-027; first compound 0.005 µM): 0.394
- relative viability (Afatinib + OSI-027; first compound 0.01581 µM): 0.324
- relative viability (Afatinib + OSI-027; first compound 0.05 µM): 0.255
- relative viability (Afatinib + OSI-027; first compound 0.1581 µM): 0.189
- relative viability (Afatinib + OSI-027; first compound 0.5 µM): 0.243
- relative viability (Afatinib + Foretinib; first compound 0.005 µM): 0.694
- relative viability (Afatinib + Foretinib; first compound 0.01581 µM): 0.597
- relative viability (Afatinib + Foretinib; first compound 0.05 µM): 0.414
- relative viability (Afatinib + Foretinib; first compound 0.1581 µM): 0.213
- relative viability (Afatinib + Phenformin; first compound 0.005 µM): 0.548
- relative viability (Afatinib + Phenformin; first compound 0.01581 µM): 0.499
- relative viability (Afatinib + Phenformin; first compound 0.05 µM): 0.36
- relative viability (Afatinib + Phenformin; first compound 0.1581 µM): 0.16
- relative viability (Afatinib + Phenformin; first compound 0.5 µM): 0.431
- relative viability (Afatinib + Dasatinib; first compound 0.005 µM): 0.446
- relative viability (Afatinib + Dasatinib; first compound 0.01581 µM): 0.472
- relative viability (Afatinib + Dasatinib; first compound 0.05 µM): 0.375
- relative viability (Afatinib + Dasatinib; first compound 0.1581 µM): 0.198
- relative viability (Afatinib + Dasatinib; first compound 0.5 µM): 0.226
